In ChEMBL document CHEMBL3608223, “Quinolizidine alkaloids reduced mortality in EV71-infected mice by compensating for the levels of T cells” (2015):
Activity calls are given as the source filed them. No cut-off for these calls is given here.

Key:
Enterovirus A71 [1] = experiment: Antiviral activity against human enterovirus 71 infected in ICR mouse assessed as reduction in viral replications in muscle at 15 mg/kg, ip qd for 8 days dosed 2 hrs post infection and measured at 8 days post infection by qRT-PCR method; format: functional, organism-based
Mus musculus [2] = experiment: Immunoregulatory activity in […] mouse assessed as increase in CD3+ T cells at 60 mg/kg, ip once daily for 8 days by flow cytometry; format: functional, organism-based; conditions: T-cell
Mus musculus [3] = experiment: Immunoregulatory activity in […] mouse assessed as reduction in NK cells at 60 mg/kg, ip once daily for 8 days by flow cytometry; format: functional, organism-based
Enterovirus A71 [4] = experiment: Antiviral activity against human enterovirus 71 infected in ICR mouse assessed as reduction in viral infection-induced phenotypic changes by measuring ruffled hair incidences at 15 mg/kg, ip qd for 8 days dosed 2 hrs post infection and measured at 8 days post infection; format: functional, organism-based
Enterovirus A71 [5] = experiment: Antiviral activity against human enterovirus 71 infected in ICR mouse assessed as increase in survival rate at 7.5 mg/kg, ip qd for 8 days dosed 2 hrs post infection and measured at 14 days post infection; format: functional
Enterovirus A71 [6] = experiment: Antiviral activity against human enterovirus 71 infected in ICR mouse assessed as mouse recovery from infection in 15 mg/kg, ip qd for 8 days dosed 2 hrs post infection and measured at 14 days post infection; format: functional, organism-based
Enterovirus A71 [7] = experiment: Antiviral activity against human enterovirus 71 infected in ICR mouse assessed as increase in survival rate at 15 mg/kg, ip qd for 8 days dosed 2 hrs post infection and measured at 14 days post infection; format: functional
Enterovirus A71 [8] = experiment: Antiviral activity against human enterovirus 71 infected in ICR mouse assessed as increase in survival rate at 15 mg/kg, ip qd for 8 days dosed 2 hrs post infection and measured at 14 days post infection relative to control; format: functional, organism-based
Mus musculus [9] = experiment: Immunoregulatory activity in […] mouse assessed as reduction in DC cells at 60 mg/kg, ip once daily for 8 days by flow cytometry; format: functional, organism-based
Enterovirus A71 [10] = experiment: Antiviral activity against human enterovirus 71 infected in ICR mouse assessed as reduction in viral infection realted clinical scores at 15 mg/kg, ip qd for 8 days dosed 2 hrs post infection; format: functional, organism-based
Mus musculus [11] = experiment: Immunoregulatory activity in […] mouse assessed as increase in CD8+ T cells at 60 mg/kg, ip once daily for 8 days by flow cytometry; format: functional, organism-based; conditions: T-cell
Enterovirus A71 [12] = experiment: Antiviral activity against human enterovirus 71 infected in ICR mouse assessed as reduction in mouse body weight loss at 15 mg/kg, ip qd for 8 days dosed 2 hrs post infection; format: functional, organism-based
Mus musculus [13] = experiment: Immunoregulatory activity in […] mouse infected with human enterovirus 71 assessed as increase in CD8+ T cells at 15 mg/kg, ip once daily for 8 days by flow cytometry and measured at 8 days post infection; format: functional, organism-based; conditions: T-cell
Mus musculus [14] = experiment: Immunoregulatory activity in […] mouse assessed as increase in CD4+ T cells at 60 mg/kg, ip once daily for 8 days by flow cytometry; format: functional, organism-based; conditions: T-cell
Mus musculus [15] = experiment: Immunoregulatory activity in […] mouse assessed as reduction in B cells at 60 mg/kg, ip once daily for 8 days by flow cytometry; format: functional, organism-based
Enterovirus A71 [16] = experiment: Antiviral activity against human enterovirus 71 infected in ICR mouse assessed as reduction in viral infection related clinical scores at 15 mg/kg, ip qd for 8 days dosed 2 hrs post infection and measured at 8 days post infection; format: functional, organism-based
Enterovirus A71 [17] = experiment: Antiviral activity against human enterovirus 71 infected in ICR mouse assessed as increase in survival rate at 30 mg/kg, ip qd for 8 days dosed 2 hrs post infection and measured at 14 days post infection; format: functional
Mus musculus [18] = experiment: Immunoregulatory activity in […] mouse infected with human enterovirus 71 assessed as increase in CD3+ T cells at 15 mg/kg, ip once daily for 8 days by flow cytometry and measured at 8 days post infection; format: functional, organism-based; conditions: T-cell
Enterovirus A71 [19] = experiment: Antiviral activity against human enterovirus 71 infected in ICR mouse assessed as reduction in viral infection-induced phenotypic changes by measuring paralysis incidences at 15 mg/kg, ip qd for 8 days dosed 2 hrs post infection and measured at 8 days post infection; format: functional, organism-based
Mus musculus [20] = experiment: Immunoregulatory activity in […] mouse infected with human enterovirus 71 assessed as increase in CD4+ T cells at 15 mg/kg, ip once daily for 8 days by flow cytometry and measured at 8 days post infection; format: functional, organism-based; conditions: T-cell
Enterovirus A71 [21] = experiment: Antiviral activity against human enterovirus 71 infected in ICR mouse assessed as increase in survival rate at 50 mg/kg, ip qd for 8 days dosed 2 hrs post infection and measured at 14 days post infection; format: functional

SMILES | Activity (Mus musculus [2]) | Activity (Mus musculus [3]) | Activity (Enterovirus A71 [8]) | Activity (Mus musculus [9]) | Activity (Mus musculus [11]) | Activity (Mus musculus [14]) | Activity (Mus musculus [15]) | other results
O=C1C=CC[C@@H]2[C@H]3CCC[N+]4([O-])CCC[C@@H](CN12)[C@@H]34 (stereo partly specified) [OXYSOPHOCARPINE] | Active | Active | Active | Active | Active | Active | Active | Activity (Enterovirus A71 [1]): Active; Activity (Enterovirus A71 [4]): Active; Activity (Enterovirus A71 [5]): 25%; Activity (Enterovirus A71 [6]): Active; Activity (Enterovirus A71 [7]): 30%; Activity (Enterovirus A71 [10]): Active; Activity (Enterovirus A71 [12]): Active; Activity (Mus musculus [13]): Active; Activity (Enterovirus A71 [16]): Active; Activity (Enterovirus A71 [17]): 25%; Activity (Mus musculus [18]): Active; Activity (Enterovirus A71 [19]): Active; Activity (Mus musculus [20]): Active
O=C1C=CC[C@@H]2[C@H]3CCCN4CCC[C@@H](CN12)[C@@H]34 | Active | Active | Active | Active | Active | Active | Active | 
O=C1CCC[C@@H]2[C@H]3CCC[N+]4([O-])CCC[C@@H](CN12)[C@@H]34 (stereo partly specified) | Active | Active | Active | Active | Active | Active | Active | 
O=C1CCC[C@@H]2[C@H]3CCCN4CCC[C@@H](CN12)[C@@H]34 | Active | Active | Active | Active | Active | Active | Active | 
O=C1CCC[C@@H]2[C@H]3CCCN4CCC[C@H](CN12)[C@@H]34 | Active | Active | Active | Active | Active | Active | Active | 
O=c1cccc2n1C[C@@H]1CCCN3CCC[C@H]2[C@H]13 | Active | Active | Active | Active | Active | Active | Active | 
NC(=O)c1ncn([C@@H]2O[C@H](CO)[C@@H](O)[C@H]2O)n1 [RIBAVIRIN] |  |  |  |  |  |  |  | Activity (Enterovirus A71 [21]): 15%
